Test results taken from EP3442964B1, “NOVEL N-[(PYRIMIDINYLAMINO)PROPANYL]-AND N [(PYRAZINYLAMINO)PROPANYL]ARYLCARBOXAMIDES” (Boehringer Ingelheim International GmbH, priority 2016, dated 2017).
Where two headings read alike, the source gives them in different places.

How the values were obtained:
[1] = target: T1, OX2R (Homo sapiens, UniProt O43614); conditions: as described in WO2013/187466; agonist 3 nM modified orexin A; cited from earlier work
T1 sequence (O43614 1-444): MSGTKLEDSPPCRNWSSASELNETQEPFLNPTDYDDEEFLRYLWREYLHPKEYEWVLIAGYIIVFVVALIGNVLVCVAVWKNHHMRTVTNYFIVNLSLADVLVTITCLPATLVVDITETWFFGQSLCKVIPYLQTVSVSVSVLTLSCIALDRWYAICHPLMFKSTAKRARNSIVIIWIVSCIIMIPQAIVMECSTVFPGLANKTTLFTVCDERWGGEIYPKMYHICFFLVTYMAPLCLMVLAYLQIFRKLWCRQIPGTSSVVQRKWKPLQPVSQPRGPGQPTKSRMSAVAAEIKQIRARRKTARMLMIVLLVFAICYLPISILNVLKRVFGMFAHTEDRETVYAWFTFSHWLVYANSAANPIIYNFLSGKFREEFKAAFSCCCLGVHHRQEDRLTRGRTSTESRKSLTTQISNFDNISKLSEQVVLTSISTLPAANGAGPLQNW

[2] = Assay C: metabolic stability in human liver microsomes (human MST); type: in vitro ADME; conditions: pooled human liver microsomes, pH 7.6, 1 µM test compound, 37°C
Excerpt: Stability in human liver microsomes refers to the susceptibility of compounds to biotransformation in the context of selecting and/or designing drugs with favorable pharmacokinetic properties. The primary site of metabolism for many drugs is the liver. Human liver microsomes contain the cytochrome P450s (CYPs), and thus represent a model system for studying drug metabolization in vitro. Enhanced stability in human liver microsomes is associated with several advantages, including increased bioavailability and longer half-life, which can enable lower and less frequent dosing of patients. Thus, enhanced stability in human liver microsomes is a favorable characteristic for compounds that are to be used for drugs.
The metabolic stability of the compounds according to the invention may be investigated as follows: The metabolic degradation of the test compound is assayed at 37°C with pooled human liver microsomes. The final incubation volume of 100 µL per time point contains TRIS buffer pH 7.6 at room temperature (0.1 M), MgCl2 (5 mM), microsomal protein (1 mg/mL) and the test compound at a final concentration of 1 µM. Following a short pre-incubation period at 37°C , the reactions are initiated by addition of beta-nicotinamide adenine dinucleotide phosphate, reduced form (NADPH, 1 mM), and terminated by transferring an aliquot into solvent after different time points. After centrifugation (10000 g, 5 min), an aliquot of the supernatant is assayed by LC-MS/MS for the amount of parent compound. The half-life (t1/2) is determined by the slope of the semi-logarithmic plot of the concentration-time profile.

[3] = target: T2, human MDR1 P-gp (Homo sapiens, UniProt P08183); assay: Assay D: efflux in MDCK cells transfected with the human MDR1 gene; type: in vitro ADME; conditions: MDCK-MDR1 monolayers, pH 7.4, 37°C, read-out: Assay D:MDCK efflux ratio (BA/AB)
T2 construct: expressed in transfected cells; host or cells: MDCK (MDCK-MDR1)
Experimental: The MDCK assay provides information on the potential of a compound to pass the blood brain barrier. Permeability measurements across polarized, confluent MDCK-MDR1 cell monolayers grown on permeable filter supports are used as an in vitro absorption model: apparent permeability coefficients (PE) of the compounds across the MDCK-MDR1 cell monolayers are measured (pH 7.4, 37°C) in apical-to-basal (AB) and basal-to-apical (BA) transport direction. The AB permeability (PEAB) represents drug absorption from the blood into the brain and the BA permeability (PEBA) drug efflux from the brain back into the blood via both, passive permeability as well as active transport mechanisms mediated by efflux and uptake transporters that are expressed on the MDCK-MDR1 cells, predominantly by the overexpressed human MDR1 P-gp. Identical or similar permeabilities in both transport directions indicate passive permeation, vectorial permeability points to additional active transport mechanisms. Higher PEBA than PEAB (PEBA/PEAB > 5) indicates the involvement of active efflux mediated by MDR1 P-gp, which might compromises the goal to achieve sufficient brain exposure. Therefore this assay provides valuable support for selection of compounds applicable for further in vivo testing. High permeability not limited by efflux at the blood brain barrier is a favourable characteristic for compounds that are to be used for drugs acting primarily in the CNS
Apparent permeability coefficients (PE) of the compounds across the MDCK-MDR1 cell monolayers are measured (pH 7.4, 37°C) in apical-to-basal (AB) and basal-to-apical (BA) transport direction. AB permeability (PEAB) represents drug absorption from the blood into the brain and BA permeability (PEBA) drug efflux from the brain back into the blood via both passive permeability as well as active transport mechanisms mediated by efflux and uptake transporters that are expressed on the MDCK-MDR1 cells, predominantly by the overexpressed human MDR1 P-gp. The compounds are assigned to permeability/absorption classes by comparison of the AB permeabilities with the AB permeabilities of reference compounds with known in vitro permeability and oral absorption in the human. Identical or similar permeabilities in both transport directions indicate passive permeation, vectorial permeability points to additional active transport mechanisms. Higher PEBA than PEAB indicates the involvement of active efflux mediated by MDR1 P-gp. Active transport is concentration- dependently saturable.
MDCK-MDR1 cells (1-2 x 10e5 cells/1 cm2 area) are seeded on filter inserts (Costar transwell polycarbonate or PET filters, 0.4 µm pore size) and cultured (DMEM) for 7 days. Subsequently, the MDR1 expression is boosted by culturing the cells with 5 mM sodium butyrate in full medium for 2 days. Compounds are dissolved in appropriate solvent (like DMSO, 1 -20 mM stock solutions). Stock solutions are diluted with HTP-4 buffer (128.13 mM NaCl, 5.36 mM KCI, 1 mM MgSO4, 1.8 mM CaCl2, 4.17 mM NaHCO3, 1.19 mM Na2HPO4 x 7H2O, 0.41 mM NaH2PO4xH2O, 15 mM HEPES, 20 mM glucose, 0.25 % BSA, pH 7.4) to prepare the transport solutions (0.1 - 300 µM compound, final DMSO <= 0.5 %). The transport solution (TL) is applied to the apical or basolateral donor side for measuring A-B or B-A permeability (3 filter replicates), respectively. The receiver side contains the same buffer as the donor side. Samples are collected at the start and end of experiment from the donor and at various time intervals for up to 2 hours also from the receiver side for concentration measurement by HPLC-MS/MS or scintillation counting. Sampled receiver volumes are replaced with fresh receiver solution.

[4] = target: T3, OX1R (Homo sapiens, UniProt O43613); assay: OX1R assay as described in WO2016/034882
T3 sequence (O43613 1-425): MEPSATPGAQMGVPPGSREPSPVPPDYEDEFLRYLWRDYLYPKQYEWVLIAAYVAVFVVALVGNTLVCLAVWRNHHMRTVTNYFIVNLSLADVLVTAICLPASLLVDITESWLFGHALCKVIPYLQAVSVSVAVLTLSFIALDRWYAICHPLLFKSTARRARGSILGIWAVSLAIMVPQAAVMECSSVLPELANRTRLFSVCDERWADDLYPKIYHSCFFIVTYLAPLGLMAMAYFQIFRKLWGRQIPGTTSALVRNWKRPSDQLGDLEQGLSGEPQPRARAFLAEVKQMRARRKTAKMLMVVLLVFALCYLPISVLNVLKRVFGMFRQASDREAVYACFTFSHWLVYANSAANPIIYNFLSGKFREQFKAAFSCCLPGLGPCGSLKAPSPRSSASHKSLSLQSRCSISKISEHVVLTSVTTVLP

[5] = target: T3, OX1R; conditions: cited from earlier work
[6] = target: T1, OX2R; conditions: cited from earlier work
[7] = target: T4, human orexin 2 receptor (Homo sapiens, UniProt O43614); type: cell-based; conditions: 0.5 nM Orexin A
T4 sequence (O43614 1-444): T1 sequence (O43614 1-444)
Excerpt: Chem. Genomics 2009, 3, 22-32.

[8] = from values of Table 3 of WO2016/034882
[9] = read-out: Assay C: Human MST t1/2
[10] = corresponds to pIC50 of Table 3 of WO2016/034882
[11] = corresponds to pIC50 of Table 1 of WO2016/034882

T2 sequence (P08183 whole entry): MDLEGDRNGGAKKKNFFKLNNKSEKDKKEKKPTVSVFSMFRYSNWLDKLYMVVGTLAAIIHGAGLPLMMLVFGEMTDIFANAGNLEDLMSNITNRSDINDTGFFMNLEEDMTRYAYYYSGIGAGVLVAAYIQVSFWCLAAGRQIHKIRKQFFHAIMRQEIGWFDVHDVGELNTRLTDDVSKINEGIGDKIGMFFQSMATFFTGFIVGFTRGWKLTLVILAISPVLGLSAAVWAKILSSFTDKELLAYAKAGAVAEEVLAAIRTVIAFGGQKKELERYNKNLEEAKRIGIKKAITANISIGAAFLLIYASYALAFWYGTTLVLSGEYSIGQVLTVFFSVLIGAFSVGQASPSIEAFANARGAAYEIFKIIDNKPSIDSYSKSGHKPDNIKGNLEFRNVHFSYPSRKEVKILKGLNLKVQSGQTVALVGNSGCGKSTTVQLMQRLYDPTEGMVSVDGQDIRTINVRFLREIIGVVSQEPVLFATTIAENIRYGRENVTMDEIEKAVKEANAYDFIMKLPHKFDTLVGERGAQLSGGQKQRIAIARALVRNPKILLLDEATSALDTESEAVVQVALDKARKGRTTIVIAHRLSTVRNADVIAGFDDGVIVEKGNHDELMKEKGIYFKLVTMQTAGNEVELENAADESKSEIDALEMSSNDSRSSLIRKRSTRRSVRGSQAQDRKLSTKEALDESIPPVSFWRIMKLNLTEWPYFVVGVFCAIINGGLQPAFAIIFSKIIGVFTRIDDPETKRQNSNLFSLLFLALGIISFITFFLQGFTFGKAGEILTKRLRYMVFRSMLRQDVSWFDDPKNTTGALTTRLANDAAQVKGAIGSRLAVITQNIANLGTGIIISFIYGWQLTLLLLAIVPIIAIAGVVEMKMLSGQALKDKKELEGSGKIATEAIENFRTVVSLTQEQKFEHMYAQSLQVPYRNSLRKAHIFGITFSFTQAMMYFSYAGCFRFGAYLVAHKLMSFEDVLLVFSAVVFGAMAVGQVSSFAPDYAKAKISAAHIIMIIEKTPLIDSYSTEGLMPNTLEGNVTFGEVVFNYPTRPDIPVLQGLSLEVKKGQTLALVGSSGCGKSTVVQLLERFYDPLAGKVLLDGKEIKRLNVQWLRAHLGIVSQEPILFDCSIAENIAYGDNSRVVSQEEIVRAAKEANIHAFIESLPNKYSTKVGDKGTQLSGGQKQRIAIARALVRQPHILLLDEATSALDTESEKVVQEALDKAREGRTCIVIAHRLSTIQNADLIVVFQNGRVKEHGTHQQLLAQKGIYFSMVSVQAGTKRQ

SMILES	IC50 [1] [nM]	half-life at 1 µM ([2]; read-out: Data as determined in Assay C: Human MST t1/2) [min]	efflux ratio [3]	OX2R IC50/OX1R IC50 [4, 8]	half-life at 1 µM [2, 9] [min]	IC50 [5, 10] [nM]	OX2R pIC50 ([6]; Table 3 of WO2016/034882)	IC50 [6, 10] [µM]	IC50 [5, 11] [nM]	OX2R pIC50 ([6]; Table 1 of WO2016/034882)	OX2R pIC50 ([6]; Table 2 of WO2016/034882)	IC50 ([6]; corresponds to pIC50 of Table 2 of WO2016/034882) [µM]	OX2R IC50/OX1R IC50 ([4]; from values of Table 1 of WO2016/034882)	IC50 [6, 11] [µM]	Kb [7] [nM]
C[C@@H](Cn1ccc(-c2ccc(F)cn2)n1)N(C)C(=O)c1cc(F)ccc1-c1ncccn1 [Example 5 in WO2013/187466, reference compound]	76	30													
CC[C@@H](CNc1ncc(C(F)(F)F)cn1)N(C)C(=O)c1c(F)cccc1-n1nccn1 [Example 91 in WO2016/034882]			< 3	Table 3: 318	> 120	25	< 5.1	≥ 7.95							
CC[C@@H](CNc1ncc(C(F)(F)F)cn1)N(C)C(=O)c1nc(C)ccc1-n1nccn1 [Example 46 in WO2016/034882]			< 3		32		< 5.0	≥ 10	20	5.1	< 5.0	> 10			
CC[C@@H](CNc1cnc(C(F)(F)F)cn1)N(C)C(=O)c1cc(Cl)ccc1-n1nccn1 [Example 40 in WO2016/034882]			< 3		9				16				Table 1: 156	2.5	
CC[C@@H](CNc1ncc(C(F)(F)F)cn1)N(C)C(=O)c1nc(C)ccc1-n1cccn1 [Example 90 in WO2016/034882]			< 3	Table 3: >526	26	1.9	< 6.0	> 1							974
